The record followed here is patent US20070066646A1, “Compounds for Inhibiting Copper-Containing Amine Oxidases and Uses Thereof” (GENMEDICA THERAPEUTICS SL, priority 2005, published 2007).

The IC50 is the concentration that gives 50% inhibition. The low end stands for greater potency, the high end for weaker potency.

Molecules are shown by their SMILES.

The experiment concerns the target T1, Human SSAO (Homo sapiens, UniProt Q16853).
T1 construct: Human or mice adipose tissue homogenates, used as a source of SSAO activity; from tissue; host or cells: human adipose tissue homogenate
T1 sequence (Q16853 1-763): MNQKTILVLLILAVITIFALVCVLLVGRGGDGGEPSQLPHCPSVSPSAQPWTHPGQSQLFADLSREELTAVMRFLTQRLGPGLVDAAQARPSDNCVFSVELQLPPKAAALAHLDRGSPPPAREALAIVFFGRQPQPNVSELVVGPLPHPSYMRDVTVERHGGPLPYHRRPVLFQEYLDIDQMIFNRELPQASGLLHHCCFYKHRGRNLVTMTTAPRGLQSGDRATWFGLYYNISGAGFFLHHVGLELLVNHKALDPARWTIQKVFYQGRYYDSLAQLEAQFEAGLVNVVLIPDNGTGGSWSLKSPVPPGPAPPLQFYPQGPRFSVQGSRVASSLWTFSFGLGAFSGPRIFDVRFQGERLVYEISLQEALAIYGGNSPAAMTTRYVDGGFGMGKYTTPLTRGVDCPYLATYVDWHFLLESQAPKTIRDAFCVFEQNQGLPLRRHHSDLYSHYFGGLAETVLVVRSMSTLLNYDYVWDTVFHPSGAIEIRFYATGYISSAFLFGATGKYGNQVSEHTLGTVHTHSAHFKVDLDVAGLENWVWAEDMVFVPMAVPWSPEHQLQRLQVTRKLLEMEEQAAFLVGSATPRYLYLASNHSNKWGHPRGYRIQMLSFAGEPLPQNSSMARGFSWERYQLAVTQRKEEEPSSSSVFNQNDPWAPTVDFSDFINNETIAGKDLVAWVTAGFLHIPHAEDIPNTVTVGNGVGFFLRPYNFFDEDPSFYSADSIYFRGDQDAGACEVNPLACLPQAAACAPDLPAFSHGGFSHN
The experiment in a line: SSAO activity determination (H2O2 detection with horseradish peroxidase/Amplex Red, benzylamine as substrate). In kind it is biochemical. The conditions noted are these: human adipose tissue homogenates as SSAO source, 20 min preincubation at 37° C., semicarbazide control subtracted. The protocol:
SSAO Activity Determination:
All assays were performed at 37° C. with SSAO from human or mice adipose tissue. The enzyme activity was measured through detection of hydrogen peroxide formed by the oxidation of benzylamine. This method is based on the horseradish peroxidase catalyzed hydrogen peroxide oxidation of 10-acetyl-3,7-dihydroxyphenoxazine (Molecular Probes A-6550), that produces resorufin a highly fluorescent product (excitation, 545 nm; emission, 590 nm) (Zhou and Panchuk-Voloshina, 1997). Human or mice adipose tissue homogenates, used as a source of SSAO activity, were preincubated in 96 well microplates for 20 min at 37° C. in 180 μL of 200 mM Phosphate buffer and H2O2-detecting mixture containing horseradish peroxidase (final concentration 1 U/mL) and Amplex Red reagent (60 μM) and different concentrations of inhibitors when necessary. Catalytic reaction was initiated by addition of 20 μL of benzylamine as substrate at 10 mM for human homogenates giving final concentrations of 100 μM and 1 mM respectively. Fluorescence intensity of the samples was measured continuously during 1 h (excitation, 545 nm; emission, 590 nm) and H2O2 concentration was calculated from calibration curves generated by serial dilutions of standard H2O2. To evaluate the amount of H2O2 formed specifically via SSAO-mediated reaction, semicarbazide 100 μM was included in the control wells subjected to the same treatments and these values were subtracted from the total amount of H2O2 formed.
The inhibition was measured as % decrease of the signal compared to a control without inhibitor. Blank values in absence of substrates were subtracted from the fluorescence for each experimental condition. The IC50 shown in Table 1 were calculated with GraphPad Prism 4 program.
With `CC(NC(=O)CCC(=O)NO)c1ccc2ccccc2c1` (stereo not shown) [compound 39], half-maximal inhibition (IC50) was put at 0.39 ± 0.04 µM.

The compound `Nc1ccc(O)c(C(=O)NCCOc2ccccc2)c1` [compound 52] showed a half-maximal inhibitory concentration (IC50) of 0.189 ± 0.016 µM.

Regarding `CC(CCc1ccccc1)NC(=O)CCC(=O)NO` (stereo not shown) [compound 37], 0.18 ± 0.01 µM corresponded to half-maximal inhibition (IC50).

As to `NC(=O)C1CCCN1C(=O)c1ccc2ncccc2c1` (stereo not shown) [compound 35], half-maximal inhibition (IC50) was put at 0.16 ± 0.031 µM.

With `CC(O)C(NS(=O)(=O)c1ccc2cccnc2c1)C(=O)NO` (stereo not shown) [compound 20], the IC50 amounted to 0.789 ± 0.061 µM.

The compound `CCCc1ccc(S(=O)(=O)NC(CO)C(=O)NO)cc1` (stereo not shown) [compound 8] gave an IC50 of 0.066 ± 0.001 µM.

On to `Cc1ccc(C2(C(=O)NCc3ccc(C(=O)NO)cc3)CCCC2)cc1` [compound 24], for which the IC50 stood at 0.334 ± 0.08 µM.

In turn, `Nc1ccc(O)c(C(=O)NCc2ccc3ccccc3c2)c1` [compound 51] yielded a concentration for half-maximal inhibition (IC50) of 0.477 ± 0.064 µM.

Turning to `NC(=O)C1CCCN1C(=O)c1nccc2ccccc12` (stereo not shown) [compound 36], the IC50 is 0.078 ± 0.024 µM.

Turning to `CC(C)(C)c1ccc(C(=O)N2CCCC2C(N)=O)cc1` (stereo not shown) [compound 33], inhibition was half-maximal at 0.09 ± 0.002 µM (IC50).

Consider `Nc1ccc(O)c(C(=O)NCc2ccccc2O)c1` [compound 48], for which the concentration for half-maximal inhibition (IC50) is 0.074 µM.

With `O=C(CCC(=O)Nc1ccccc1O)NO` [compound 38], the IC50 stood at 0.14 ± 0.01 µM.

`Cc1ccc(S(=O)(=O)NC(CN)C(=O)NO)cc1` (stereo not shown) [compound 19]: the IC50 was 0.14 ± 0.03 µM.

Take `O=C(NO)C(CO)NS(=O)(=O)c1ccc2ccccc2c1` (stereo not shown) [compound 13]: the IC50 is 0.067 ± 0.001 µM.

Regarding `Cc1ccc(CCCC(=O)NC(CCC(=O)O)C(=O)O)cc1` (stereo not shown) [compound 29], the IC50 was determined as 0.259 ± 0.062 µM.

For `Nc1ccc(O)c(C(=O)NCc2ccc(F)cc2)c1` [compound 49], the IC50 worked out at 0.253 ± 0.002 µM.

With `O=C(O)CCC(NC(=O)c1cc2ccccc2[nH]1)C(=O)O` (stereo not shown) [compound 30], the IC50 was determined as 0.165 ± 0.007 µM.

As for `Nc1ccc(O)c(C(=O)NCCCc2ccccc2)c1` [compound 54], half-maximal inhibition (IC50) was put at 0.575 ± 0.023 µM.

`Nc1ccc(C(=O)NCc2ccc3ccccc3c2)cc1O` [compound 41] displayed an IC50 of 0.25 ± 0.056 µM.

`Cc1ccc(S(=O)(=O)NC(C(=O)NO)C(C)O)cc1` (stereo not shown) [compound 18]: the IC50 stood at 0.041 ± 0.001 µM.

The compound `O=C(CNS(=O)(=O)c1ccc2ccccc2c1)NO` [compound 17] had a concentration for half-maximal inhibition (IC50) of 0.217 ± 0.039 µM.

`CN(C)c1cccc2ccc(S(=O)(=O)NC(CO)C(=O)NO)cc12` (stereo not shown) [compound 21] displayed an IC50 of 0.097 ± 0.021 µM.

The compound `CC(O)C(NS(=O)(=O)c1ccc2ccccc2c1)C(=O)NO` (stereo not shown) [compound 14] showed an IC50 of 0.054 ± 0.007 µM.

The compound `Cc1ccc(C2(C(=O)NC(CCC(=O)NO)C(=O)O)CCCC2)cc1` (stereo not shown) [compound 27] came in with an IC50 of 0.214 ± 0.041 µM.

As to `Nc1ccc(C(=O)NCCCc2ccccc2)cc1O` [compound 45], half-maximal inhibition (IC50) was put at 0.146 ± 0.005 µM.

As for `Cc1ccc(S(=O)(=O)NCc2ccc(C(=O)NO)cc2)cc1` [compound 23], half-maximal inhibition (IC50) was put at 0.7 ± 0.04 µM.

In the case of `CCC(C)(C)c1ccc(S(=O)(=O)NC(C(=O)NO)C(C)O)cc1` (stereo not shown) [compound 11], half-maximal inhibition (IC50) required 0.004 ± 0.0005 µM.

Turning to `CC(O)C(NS(=O)(=O)c1ccc(-c2ccccc2)cc1)C(=O)NO` (stereo not shown) [compound 6], the IC50 is 0.3 ± 0.1 µM.

As for `Nc1ccc(C(=O)NCCCCc2ccccc2)cc1O` [compound 46], the IC50 was 0.401 ± 0.03 µM.

On to `Nc1ccc(C(=O)NCc2ccc(F)cc2)cc1O` [compound 40], for which the midpoint of inhibition, the IC50, lay at 0.202 ± 0.026 µM.

The compound `O=C(CNC(=O)c1ccc(Br)cc1)NO` [compound 3] gave an IC50 of 0.1 ± 0.03 µM.

Compound `CCCc1ccc(S(=O)(=O)NC(C(=O)NO)C(C)O)cc1` (stereo not shown) [compound 9] returned an IC50 of 0.136 ± 0.04 µM.

In turn, `O=C(O)CCC(NC(=O)CCCc1ccccc1)C(=O)O` (stereo not shown) [compound 28] registered an IC50 of 0.229 ± 0.092 µM.

In turn, `CCC(C)(C)c1ccc(S(=O)(=O)NCC(=O)NO)cc1` [compound 12] registered an IC50 of 1.57 ± 0.175 µM.

Regarding `NCC(NS(=O)(=O)c1ccc(-c2ccccc2)cc1)C(=O)NO` (stereo not shown) [compound 7], half-maximal inhibition (IC50) required 1.9 ± 0.2 µM.

For the compound `CCC(C)(C)c1ccc(S(=O)(=O)NC(CO)C(=O)NO)cc1` (stereo not shown) [compound 10], half-maximal inhibition (IC50) was put at 0.041 ± 0.008 µM.

`Nc1ccc(O)c(C(=O)NCc2ccccc2)c1` [compound 47] had an IC50 of 0.41 ± 0.063 µM.

As for `CC(O)C(NS(=O)(=O)c1ccc2cccc(N(C)C)c2c1)C(=O)NO` (stereo not shown) [compound 22], the IC50 worked out at 0.369 ± 0.071 µM.

For the compound `Nc1ccc(C(=O)NCCOc2ccccc2)cc1O` [compound 42], half-maximal inhibition (IC50) was put at 0.173 ± 0.009 µM.

Consider `O=C(NO)C(CO)NS(=O)(=O)c1ccc(-c2ccccc2)cc1` (stereo not shown) [compound 5], for which half-maximal inhibition (IC50) required 0.25 ± 0.02 µM.

In turn, `Nc1ccc(O)c(C(=O)NCCCCc2ccccc2)c1` [compound 55] gave an IC50 of 0.762 ± 0.06 µM.

Regarding `O=C(O)CCC(NC(=O)Cc1ccc(-c2ccccc2)cc1)C(=O)O` (stereo not shown) [compound 26], the concentration for half-maximal inhibition (IC50) is 0.125 ± 0.002 µM.

Compound `CC(NC(=O)c1ccc(N)c(O)c1)c1ccc2ccccc2c1` (stereo not shown) [compound 43] yielded an IC50 of 0.337 ± 0.07 µM.

`Nc1ccc(C(=O)NCCc2ccccc2)cc1O` [compound 44] came in with an IC50 of 0.185 ± 0.031 µM.

Consider `Nc1ccc(O)c(C(=O)NCCc2ccccc2)c1` [compound 53], for which the IC50 stood at 0.618 ± 0.118 µM.

On to `NC(=O)C1CCCN1C(=O)c1cc2ccccc2cc1O` (stereo not shown) [compound 34], for which the IC50 came out at 0.147 ± 0.044 µM.

`COc1cc(CNC(=O)c2cc(N)ccc2O)cc(OC)c1` [compound 50] came in with an IC50 of 0.577 ± 0.027 µM.

In turn, `O=C(CNS(=O)(=O)c1ccc2ccccc2c1)NO` [compound 15] came in with an IC50 of 0.217 ± 0.039 µM.

Regarding `O=C(NO)C1Cc2ccccc2C1` [compound 2], the IC50 turned out to be 1.1 ± 0.04 µM.

For the compound `Cc1ccc(/C=C/C(=O)NC(CCC(=O)O)C(=O)O)cc1` (stereo not shown) [compound 31], 0.128 ± 0.03 µM corresponded to half-maximal inhibition (IC50).

As to `O=C(CCc1ccccc1O)NCc1ccc(C(=O)NO)cc1` [compound 25], 0.941 ± 0.026 µM corresponded to half-maximal inhibition (IC50).

`NC(=O)C1CCCN1C(=O)c1ccc(-c2ccccc2)cc1` (stereo not shown) [compound 32]: half-maximal inhibition (IC50) required 0.121 ± 0.047 µM.
